# In US20250041239A1, “ORALLY DISSOLVING ANTIMICROBIAL FILM COMPOSITIONS & METHODS OF THEIR USE” (ISHA Therapeutics LLC, priority 2022, published 2025):
# Tests used:
# [1] = physiological pH; cited from earlier work
# Candida spp. = assay: Resazurin microtiter assay (REMA), MIC, Candida spp. tested; format: cell-based; settings: Candida albicans and Candida tropicalis; read-out: average MIC against Candida spp. tested
# Method: This Example provides a description of antifungal efficacy testing wherein minimum inhibitor concentration (MIC) of the active pharmaceutical ingredient amphotericin B in the orally dissolvable films disclosed herein compared to that of unmodified amphotericin B. The test organisms utilized in this experiment were Candida tropicalis and Candida albicans.
# A resazurin microtiter assay (REMA) assay was performed using orally dissolvable films prepared according to the process described in Example 3 and unmodified amphotericin B. Samples were run in triplicate as Sets 1-3 for each test material against each pathogen.
# Candida albicans = assay: Agar cup diffusion, zone of inhibition; format: cell-based
# From the text: (§1) This Example provides a description of the antifungal activity of the active pharmaceutical ingredient amphotericin B in the orally dissolvable films disclosed herein compared to that of unmodified amphotericin B. Test organisms utilized in this experiment were Candida albicans and Candida tropicalis. Orally dissolvable amphotericin B-containing film(s) utilized in this Example were made according to the process described in Example 3.
# (§2) Two different species of infectious fungal genus Candida were cultured. A first mixture of sabouraud dextrose agar and broth was inoculated with Candida albicans and allowed to sit at room temperature for a period of two days under aerobic conditions. A second mixture of sabouraud dextrose agar and broth was inoculated with Candida tropicalis and allowed to sit at room temperature for 2 days under aerobic conditions. This established two cultures (one each) of the test organisms.
# (§3) To standardize the respective cultures, the optical density of each culture was adjusted using a 0.5 McFarland (turbidity) standard, approximating cultures to be approximately […] colony forming units per milliliter (cfu/mL).
# (§4) Each respective suspension was mixed until homogeneous to provide a final culture density of about 1×10^4 cfu/mL.
# (§5) Agar cup diffusion was used for testing antifungal activity of the test compositions. 0.1 mL of each respective sample of amphotericin B or amphotericin B-containing film was provided in a cylinder. Film concentration was 1.8 mg amphotericin B per film. Each test plate contained two samples (two cylinders). Tests were performed in triplicate (3 plates per test composition). Plates were incubated at room temperature for a period of 2 days as amphotericin B test compositions were allowed to diffuse into the agar layer containing test organism(s).
# (§6) Amphotericin B and amphotericin B-containing films were then evaluated for in vitro antifungal activity by measuring the zone of inhibition and microbial inhibition concentration (MIC) of each sample. Results are shown in FIGS. 2A, 2B, and 2C for the test organism Candida albicans and FIGS. 3A, 3B, and 3C for the test organism Candida tropicalis. Therein, amphotericin B samples are indicated as “A” and amphotericin B-containing films are indicated as “B”.
# Candida tropicalis = assay: Agar cup diffusion, zone of inhibition; format: cell-based
# From the text: as §1, §2, §3, §4, §5, §6
# [2] = 0.1 mL sample, room temperature, 2 days
compound,measurement,setting,value
"C[C@@H]1[C@H](O)[C@@H](C)/C=C/C=C/C=C/C=C/C=C/C=C/C=C/[C@H](O[C@@H]2O[C@H](C)[C@@H](O)[C@H](N)[C@@H]2O)C[C@@H]2O[C@](O)(C[C@@H](O)C[C@@H](O)[C@H](O)CC[C@@H](O)C[C@@H](O)CC(=O)O[C@H]1C)C[C@H](O)[C@H]2C(=O)O [AmpB, (1R,3S,5R,6R,9R,11R,15S,16R, 17R, 18S, 19E,21E,23E, 25E, 27E,29E,31E,33R,35S,36R,37S)-33-[(2R,3S,4S,5S,6R)-4-amino-3,5-di hydroxy-6-methyloxan-2-yl]oxy-1,3,5,6,9,11,17,37-octahydroxy-15,16,18-trimethyl-13-oxo-14,39-dioxabicyclo[33.3.1]nonatriaconta-19,21,23, 25, 27,29,31-heptaene-36-carboxylic acid]",solubility in saline,[1],insoluble
same,MIC,Candida spp.,~1.1 µg/mL
same,"Zone of Inhibition, Set 1",Candida albicans; [2],19 mm
same,"Zone of Inhibition, Set 2",Candida albicans; [2],19 mm
same,"Zone of Inhibition, Set 3",Candida albicans; [2],20 mm
same,Effective Zone of Inhibition,Candida albicans; mean of Sets 1-3,19.33 ± 0.57 mm
same,"Zone of Inhibition, Set 1",Candida tropicalis; [2],20 mm
same,"Zone of Inhibition, Set 2",Candida tropicalis; [2],22 mm
same,"Zone of Inhibition, Set 3",Candida tropicalis; [2],22 mm
same,Effective Zone of Inhibition,Candida tropicalis; mean of Sets 1-3,21.33 ± 1.15 mm
